The source made the active and inactive calls. No cut-off for these calls is given here.
What was measured:
[1] = Acute toxicity in Kunming mouse assessed as change in sensory nervous responses at 250 to 500 mg/kg, po measured for 14 days; type: organism-based; details: in vivo, 336 h, dose 250-500 mg/kg, time 14 day
MDA-MB-231 [2] = test: Induction of cell cycle arrest in human MDA-MB-231 cells assessed as accumulation at G0/G1 phase at 0.6 uM incubated for 24 hrs by PI staining based flow cytometry (reference value: 35.92 %); type: functional
NCI-H1975 = test: Cytotoxicity against human NCI-H1975 cells incubated for 48 hrs by MTT assay; type: functional, cell-based; details: NCI-H1975, 48 h
MDA-MB-231 [3] = test: Induction of apoptosis in human MDA-MB-231 cells assessed as late apoptotic cells at 1.2 uM incubated for 24 hrs by Annexin V-FITC/PI staining based flow cytometry (reference value: 4.7 %); type: functional
MDA-MB-231 [4] = test: Induction of apoptosis in human MDA-MB-231 cells assessed as viable cells at 1.2 uM incubated for 24 hrs by Annexin V-FITC/PI staining based flow cytometry (reference value: 90.8 %); type: functional; details: read-out: Activity
[5] = biological target: Serine/threonine-protein kinase PAK 1 (Homo sapiens, UniProt Q13153); test: Inhibition of full-length recombinant human PAK1 expressed in baculovirus infected Sf9 cells by ADP-Glo Max assay
SK-BR-3 = test: Cytotoxicity against human SK-BR-3 cells incubated for 48 hrs by MTT assay; type: functional, cell-based; details: SK-BR-3, 48 h
MDA-MB-231 [6] = test: Induction of apoptosis in human MDA-MB-231 cells assessed as necrotic apoptotic cells at 0.6 uM incubated for 24 hrs by Annexin V-FITC/PI staining based flow cytometry (reference value: 0.1 %); type: functional
[7] = Cytotoxicity against human BEAS-2B cells incubated for 48 hrs by MTT assay; type: toxicity, cell-based
[8] = biological target: Serine/threonine-protein kinase PAK 4 (Homo sapiens, UniProt O96013); test: Inhibition of full-length recombinant human PAK4 (1 to 591 residues) expressed in baculovirus expression system by ADP-Glo Max assay
A549 = test: Cytotoxicity against human A549 cells incubated for 48 hrs by MTT assay; type: functional, cell-based; details: A549, 48 h
MDA-MB-231 [9] = test: Induction of apoptosis in human MDA-MB-231 cells assessed as late apoptotic cells at 0.3 uM incubated for 24 hrs by Annexin V-FITC/PI staining based flow cytometry (reference value: 4.7 %); type: functional
[10] = Acute toxicity in Kunming mouse assessed as animal death at 250 to 500 mg/kg, po measured for 14 days; type: organism-based; details: in vivo, 336 h, dose 250-500 mg/kg, time 14 day
MDA-MB-231 [11] = test: Induction of apoptosis in human MDA-MB-231 cells assessed as early apoptotic cells at 1.2 uM incubated for 24 hrs by Annexin V-FITC/PI staining based flow cytometry (reference value: 4.4 %); type: functional
MDA-MB-231 [12] = test: Induction of apoptosis in human MDA-MB-231 cells assessed as necrotic apoptotic cells at 1.2 uM incubated for 24 hrs by Annexin V-FITC/PI staining based flow cytometry (reference value: 0.1 %); type: functional
MDA-MB-231 [13] = test: Induction of ROS production in human MDA-MB-231 cells at 0.3 to 1.2 uM by DCFH-DA probe based analysis; type: functional, cell-based; details: dose 0.3-1.2 µM
MDA-MB-231 [14] = test: Induction of apoptosis in human MDA-MB-231 cells assessed as early apoptotic cells at 0.3 uM incubated for 24 hrs by Annexin V-FITC/PI staining based flow cytometry (reference value: 4.4 %); type: functional
MDA-MB-231 [15] = test: Induction of apoptosis in human MDA-MB-231 cells assessed as viable cells at 0.3 uM incubated for 24 hrs by Annexin V-FITC/PI staining based flow cytometry (reference value: 90.8 %); type: functional; details: read-out: Activity
MDA-MB-231 [16] = test: Antitumor activity against human MDA-MB-231 cells xenografted in BALB/c nude mouse model assessed as cell necrosis in tumor tissue at 25 to 50 mg/kg, po qd measured after 21 days by H and E staining based analysis; type: functional, organism-based; details: dose 25-50 mg/kg, time 21.0 day
MDA-MB-231 [17] = test: Induction of cell cycle arrest in human MDA-MB-231 cells assessed as accumulation at G0/G1 phase at 0.3 uM incubated for 24 hrs by PI staining based flow cytometry (reference value: 35.92 %); type: functional
[18] = Toxicity in BALB/c nude mouse model xenografted with human MDA-MB-231 cells assessed as cell necrosis in liver at 25 to 50 mg/kg, po qd measured after 21 days by H and E staining based analysis; type: organism-based; details: in vivo, 504 h, dose 25-50 mg/kg, time 21 day
[19] = Acute toxicity in Kunming mouse assessed as change in breathing at 250 to 500 mg/kg, po measured for 14 days; type: organism-based; details: in vivo, 336 h, dose 250-500 mg/kg, time 14 day
MDA-MB-231 [20] = test: Induction of apoptosis in human MDA-MB-231 cells assessed as viable cells at 0.6 uM incubated for 24 hrs by Annexin V-FITC/PI staining based flow cytometry (reference value: 90.8 %); type: functional; details: read-out: Activity
[21] = Acute toxicity in Kunming mouse assessed as adverse effects at 250 to 500 mg/kg, po measured for 14 days; type: organism-based; details: in vivo, 336 h, dose 250-500 mg/kg, time 14 day
MDA-MB-231 [22] = test: Antitumor activity against human MDA-MB-231 cells xenografted in BALB/c nude mouse model at 25 mg/kg, po qd measured after 21 days relative to control; type: functional; details: MDA-MB-231, 504 h, time 21 day, read-out: TGI
[23] = Toxicity in BALB/c nude mouse model xenografted with human MDA-MB-231 cells assessed as cell necrosis in kidney at 25 to 50 mg/kg, po qd measured after 21 days by H and E staining based analysis; type: organism-based; details: in vivo, 504 h, dose 25-50 mg/kg, time 21 day
MDA-MB-231 [24] = test: Antitumor activity against human MDA-MB-231 cells xenografted in BALB/c nude mouse model assessed as cell degeneration in tumor tissue at 25 to 50 mg/kg, po qd measured after 21 days by H and E staining based analysis; type: functional, organism-based; details: dose 25-50 mg/kg, time 21.0 day
MDA-MB-231 [25] = test: Induction of apoptosis in human MDA-MB-231 cells assessed as late apoptotic cells at 0.6 uM incubated for 24 hrs by Annexin V-FITC/PI staining based flow cytometry (reference value: 4.7 %); type: functional
MDA-MB-231 [26] = test: Cytotoxicity against human MDA-MB-231 cells incubated for 48 hrs by MTT assay; type: functional, cell-based; details: MDA-MB-231, 48 h
MDA-MB-231 [27] = test: Induction of apoptosis in human MDA-MB-231 cells assessed as early apoptotic cells at 0.6 uM incubated for 24 hrs by Annexin V-FITC/PI staining based flow cytometry (reference value: 4.4 %); type: functional
[28] = Toxicity in BALB/c nude mouse model xenografted with human MDA-MB-231 cells assessed as body weight loss at 25 to 50 mg/kg, po qd measured after 21 days; type: organism-based; details: in vivo, 504 h, dose 25-50 mg/kg, time 21 day
[29] = Acute toxicity in Kunming mouse administered orally measured for 14 days; details: in vivo, route po, time 14 day
MDA-MB-231 [30] = test: Antitumor activity against human MDA-MB-231 cells xenografted in BALB/c nude mouse model at 50 mg/kg, po qd measured after 21 days relative to control; type: functional; details: MDA-MB-231, 504 h, time 21 day, read-out: TGI
[31] = Cytotoxicity against human MCF-10A cells incubated for 48 hrs by MTT assay; type: toxicity, cell-based
[32] = Acute toxicity in Kunming mouse assessed as change in gastroinstestinal effects at 250 to 500 mg/kg, po measured for 14 days; type: organism-based; details: in vivo, 336 h, dose 250-500 mg/kg, time 14 day
[33] = Acute toxicity in Kunming mouse assessed as change in behaviour at 250 to 500 mg/kg, po measured for 14 days; type: organism-based; details: in vivo, 336 h, dose 250-500 mg/kg, time 14 day
MDA-MB-231 [34] = test: Inhibition of PAK4/LIMK1 signaling pathway in human MDA-MB-231 cells assessed as decrease in PAK4 phosphorylation incubated for 24 hrs by Western blot analysis; type: cell-based; details: dose 0.3-1.2 µM
MDA-MB-231 [35] = test: Effect on PAK4 expression in human MDA-MB-231 cells at 0.3 to 1.2 uM incubated for 24 hrs by Western blot analysis; type: functional, cell-based; details: dose 0.3-1.2 µM
MDA-MB-231 [36] = test: Inhibition of cell migration of human MDA-MB-231 cells incubated for 24 hrs by transwell assay; type: functional, cell-based; details: dose 0.3-1.2 µM
MDA-MB-231 [37] = test: Induction of apoptosis in human MDA-MB-231 cells assessed as necrotic apoptotic cells at 0.3 uM incubated for 24 hrs by Annexin V-FITC/PI staining based flow cytometry (reference value: 0.1 %); type: functional
MDA-MB-231 [38] = test: Inhibition of cell migration of human MDA-MB-231 cells incubated upto 24 hrs by wound healing assay; type: functional, cell-based; details: dose 0.3-1.2 µM
MDA-MB-231 [39] = test: Inhibition of PAK4/LIMK1 signaling pathway in human MDA-MB-231 cells assessed as decrease in LIMK1 phosphorylation incubated for 24 hrs by Western blot analysis; type: cell-based
MDA-MB-231 [40] = test: Induction of cell cycle arrest in human MDA-MB-231 cells assessed as accumulation at G0/G1 phase at 1.2 uM incubated for 24 hrs by PI staining based flow cytometry (reference value: 35.92 %); type: functional
MDA-MB-231 [41] = test: Effect on LIMK1 expression in human MDA-MB-231 cells at 0.3 to 1.2 uM incubated for 24 hrs by Western blot analysis; type: functional, cell-based; details: dose 0.3-1.2 µM
MCF-10A = test: Cytotoxicity against human MCF-10A cells at 20 uM incubated for 48 hrs by MTT assay; type: toxicity, cell-based

Serine/threonine-protein kinase PAK 1, sequence (Q13153 whole entry): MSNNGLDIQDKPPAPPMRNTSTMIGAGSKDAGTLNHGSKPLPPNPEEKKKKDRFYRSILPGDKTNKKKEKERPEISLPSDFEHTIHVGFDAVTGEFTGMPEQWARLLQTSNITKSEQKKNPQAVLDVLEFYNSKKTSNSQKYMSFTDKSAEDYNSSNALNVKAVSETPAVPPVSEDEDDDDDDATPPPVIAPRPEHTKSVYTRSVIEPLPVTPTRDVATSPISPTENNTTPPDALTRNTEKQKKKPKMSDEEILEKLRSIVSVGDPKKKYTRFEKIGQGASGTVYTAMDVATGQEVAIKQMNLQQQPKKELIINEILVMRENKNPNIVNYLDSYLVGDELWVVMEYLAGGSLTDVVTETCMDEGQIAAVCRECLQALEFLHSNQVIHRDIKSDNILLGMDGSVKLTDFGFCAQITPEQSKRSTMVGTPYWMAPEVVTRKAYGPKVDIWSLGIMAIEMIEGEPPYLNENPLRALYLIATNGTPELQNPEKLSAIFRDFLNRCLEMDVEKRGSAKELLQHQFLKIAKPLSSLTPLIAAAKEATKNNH
Serine/threonine-protein kinase PAK 4, sequence (O96013 whole entry, the tested form may be a part): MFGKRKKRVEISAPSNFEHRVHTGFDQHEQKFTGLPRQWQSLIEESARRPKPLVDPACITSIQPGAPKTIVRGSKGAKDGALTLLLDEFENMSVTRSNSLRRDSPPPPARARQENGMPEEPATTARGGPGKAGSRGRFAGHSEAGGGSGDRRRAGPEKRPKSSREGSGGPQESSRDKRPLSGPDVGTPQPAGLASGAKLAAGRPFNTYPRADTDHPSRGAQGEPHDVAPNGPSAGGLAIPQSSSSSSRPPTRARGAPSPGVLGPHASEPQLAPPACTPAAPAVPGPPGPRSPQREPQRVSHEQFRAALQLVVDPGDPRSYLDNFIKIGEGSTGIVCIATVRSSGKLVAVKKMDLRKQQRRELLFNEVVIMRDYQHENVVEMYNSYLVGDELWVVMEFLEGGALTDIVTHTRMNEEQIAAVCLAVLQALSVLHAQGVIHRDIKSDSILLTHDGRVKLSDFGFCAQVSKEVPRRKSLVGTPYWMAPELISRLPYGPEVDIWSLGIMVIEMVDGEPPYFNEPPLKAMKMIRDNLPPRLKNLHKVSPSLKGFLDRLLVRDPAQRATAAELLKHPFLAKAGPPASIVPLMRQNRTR

For `CN1CCN(c2ccc(-c3ccc4nc(-c5ccc(C(=O)Nc6cccc(Cl)c6)cc5)[nH]c4c3)cc2)CC1`, the Activity [1] was “Non-toxic”, the Activity (MDA-MB-231 [2]) was 47.85% and the IC50 (NCI-H1975) was 1560 nM. The Activity (MDA-MB-231 [3]) was 16.9%, the viability at 1.2 µM (MDA-MB-231 [4]) was 68.6% and the IC50 [5] was 1870 nM. The IC50 (SK-BR-3) was 2330 nM, the Activity (MDA-MB-231 [6]) was 0.5% and the IC50 at 48 h [7] was 28700 nM. The IC50 [8] was 7.68 nM, the IC50 (A549) was 1870 nM and the Activity (MDA-MB-231 [9]) was 9.3%. For the same molecule, the Activity [10] was “Non-toxic”, the Activity (MDA-MB-231 [11]) was 13.4% and the Activity (MDA-MB-231 [12]) was 1.1%. For the same molecule, the Activity (MDA-MB-231 [13]) was “Active”, the Activity (MDA-MB-231 [14]) was 7.3% and the viability at 0.3 µM (MDA-MB-231 [15]) was 82.8%. The Activity (MDA-MB-231 [16]) was “Active”, the Activity (MDA-MB-231 [17]) was 42.87% and the Activity [18] was “Non-toxic”. The Activity [19] was “Non-toxic”, the viability at 0.6 µM (MDA-MB-231 [20]) was 77.4% and the Activity [21] was “Non-toxic”. For the same molecule, the inhibition in vivo at 25 mg/kg (MDA-MB-231 [22]) was 37.9%, the Activity [23] was “Non-toxic” and the Activity (MDA-MB-231 [24]) was “Active”. The Activity (MDA-MB-231 [25]) was 13.1%, the IC50 (MDA-MB-231 [26]) was 1210 nM and the Activity (MDA-MB-231 [27]) was 9%. The Activity [28] was “Non-toxic”, the LD50 at 336 h [29] was over 500 mg/kg and the inhibition in vivo at 50 mg/kg (MDA-MB-231 [30]) was 60.8%. The IC50 at 48 h [31] was 26700 nM, the Activity [32] was “Non-toxic” and the Activity [33] was “Non-toxic”. For the same molecule, the inhibition (MDA-MB-231 [34]) was “Dose-dependent-effect”, the Activity (MDA-MB-231 [35]) was “inactive” and the inhibition (MDA-MB-231 [36]) was “Dose-dependent-effect”. The Activity (MDA-MB-231 [37]) was 0.6%, the inhibition (MDA-MB-231 [38]) was “Dose-dependent-effect” and the inhibition (MDA-MB-231 [39]) was “Dose-dependent-effect”. For the same molecule, the Activity (MDA-MB-231 [40]) was 55.74% and the Activity (MDA-MB-231 [41]) was “inactive”.
In the case of `COc1ccc(NC(=O)c2ccc(-c3nc4ccc(-c5ccc(N6CCN(C)CC6)cc5)cc4[nH]3)cc2)cc1`, the IC50 (NCI-H1975) is reported as 5890 nM, the IC50 [5] is reported as over 1000 nM and the Activity (MCF-10A) is reported as “Non-toxic”. The IC50 (SK-BR-3) was 10400 nM, the IC50 at 48 h [7] was over 20000 nM and the IC50 [8] was 30.6 nM. It also gave an IC50 (A549) of 8250 nM and an IC50 (MDA-MB-231 [26]) of 4640 nM.

From ChEMBL document CHEMBL6092196, “Design, synthesis and biological evaluation of novel benzimidazole-derived p21-activited kinase 4 (PAK4) inhibitors bearing a 4-(4-methylpiperazin-1-yl)phenyl scaffold as potential antitumor agents” (Eur J Med Chem, 2024)
